Measurements taken from ChEMBL document CHEMBL5465560, “Selectivity Literature for EUbOPEN Chemogenomic Library” (2024).

Columns and labels:
[1] = biological target: Androgen receptor (Homo sapiens) (UniProt P10275); experiment: Selectivity interaction (Eurofins CEREP Diversity Profile (receptors and ion channels)) EUB0000279b AR; conditions: at 10 µM
[2] = biological target: Cyclin-dependent kinase 16 (Homo sapiens) (UniProt Q00536); experiment: Selectivity interaction (KinomeScan (DiscoverX)) EUB0000607a CDK16; conditions: at 10 µM
[3] = biological target: Protein kinase C theta type (Homo sapiens, UniProt Q04759); experiment: Selectivity interaction (Upstate Kinase Profiler service (Millipore)) EUB0000056c PRKCQ; conditions: at 1 µM
[4] = biological target: Cyclin-dependent kinase 3 (Homo sapiens) (UniProt Q00526); conditions: at 10 µM
[5] = biological target: Casein kinase II subunit alpha (Homo sapiens, UniProt P68400); experiment: Selectivity interaction (Kinase panel (Invitrogen)) EUB0000639a CSNK2A1; conditions: at 200 nM
[6] = biological target: T1, Inhibitor of nuclear factor kappa-B kinase subunit beta (Homo sapiens) (UniProt O14920); experiment: Selectivity interaction (ActivX KiNativ screen (kinase selectivity in THP-1 cell lysates)) EUB0000639a IKBKB; assay type: subcellular; conditions: lysate, at 0.2 µM
T1 sequence (whole entry): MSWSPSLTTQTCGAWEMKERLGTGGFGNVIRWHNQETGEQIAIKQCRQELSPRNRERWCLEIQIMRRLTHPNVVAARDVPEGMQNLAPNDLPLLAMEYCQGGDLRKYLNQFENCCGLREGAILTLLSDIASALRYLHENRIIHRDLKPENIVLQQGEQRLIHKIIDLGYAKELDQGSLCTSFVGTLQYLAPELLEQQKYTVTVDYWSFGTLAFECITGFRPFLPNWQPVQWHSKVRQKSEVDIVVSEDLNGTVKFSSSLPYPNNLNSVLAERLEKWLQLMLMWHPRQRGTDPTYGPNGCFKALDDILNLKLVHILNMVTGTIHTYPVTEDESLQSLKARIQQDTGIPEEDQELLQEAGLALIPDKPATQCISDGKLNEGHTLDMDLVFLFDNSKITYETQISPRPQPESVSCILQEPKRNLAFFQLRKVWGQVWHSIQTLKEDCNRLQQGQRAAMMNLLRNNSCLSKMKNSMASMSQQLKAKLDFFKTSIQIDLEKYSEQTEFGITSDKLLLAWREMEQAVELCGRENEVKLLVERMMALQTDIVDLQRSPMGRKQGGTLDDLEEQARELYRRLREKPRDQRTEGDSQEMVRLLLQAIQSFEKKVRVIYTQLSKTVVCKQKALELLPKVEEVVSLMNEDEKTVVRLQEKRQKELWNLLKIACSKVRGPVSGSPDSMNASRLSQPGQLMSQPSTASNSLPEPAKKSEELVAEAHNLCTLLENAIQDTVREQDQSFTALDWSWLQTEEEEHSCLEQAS

[7] = biological target: LIM domain kinase 1 (Homo sapiens) (UniProt P53667); experiment: Selectivity interaction (Kinase panel (Invitrogen)) EUB0000639a LIMK1; conditions: at 200 nM
[8] = biological target: Serine/threonine-protein kinase SIK2 (Homo sapiens) (UniProt Q9H0K1); experiment: Selectivity interaction (Kinase panel (Invitrogen)) EUB0000639a SIK2; conditions: at 200 nM
Adenosine receptor A2a = Adenosine receptor A2a (Homo sapiens, UniProt P29274); experiment: Selectivity interaction (Safety Panel 44tm (Eurofins)) EUB0000162b ADORA2A; conditions: at 10 µM
[9] = biological target: Dual specificity protein kinase CLK1 (Homo sapiens, UniProt P49759); experiment: Selectivity interaction (KinomeScan (DiscoverX)) EUB0000595a CLK1; conditions: at 10 µM
[10] = biological target: Vascular endothelial growth factor receptor 3 (Homo sapiens, UniProt P35916); experiment: Selectivity interaction (Kinase screening (Nanosyn)) EUB0000604a FLT4
[11] = biological target: Cyclin-dependent kinase 19 (Homo sapiens) (UniProt Q9BWU1); experiment: Selectivity interaction (KinomeScan (DiscoverX)) EUB0001079a CDK19; conditions: at 1 µM
[12] = biological target: T2, cGMP-dependent protein kinase 1 (Homo sapiens) (UniProt Q13976); conditions: at 10 µM
T2 sequence (whole entry): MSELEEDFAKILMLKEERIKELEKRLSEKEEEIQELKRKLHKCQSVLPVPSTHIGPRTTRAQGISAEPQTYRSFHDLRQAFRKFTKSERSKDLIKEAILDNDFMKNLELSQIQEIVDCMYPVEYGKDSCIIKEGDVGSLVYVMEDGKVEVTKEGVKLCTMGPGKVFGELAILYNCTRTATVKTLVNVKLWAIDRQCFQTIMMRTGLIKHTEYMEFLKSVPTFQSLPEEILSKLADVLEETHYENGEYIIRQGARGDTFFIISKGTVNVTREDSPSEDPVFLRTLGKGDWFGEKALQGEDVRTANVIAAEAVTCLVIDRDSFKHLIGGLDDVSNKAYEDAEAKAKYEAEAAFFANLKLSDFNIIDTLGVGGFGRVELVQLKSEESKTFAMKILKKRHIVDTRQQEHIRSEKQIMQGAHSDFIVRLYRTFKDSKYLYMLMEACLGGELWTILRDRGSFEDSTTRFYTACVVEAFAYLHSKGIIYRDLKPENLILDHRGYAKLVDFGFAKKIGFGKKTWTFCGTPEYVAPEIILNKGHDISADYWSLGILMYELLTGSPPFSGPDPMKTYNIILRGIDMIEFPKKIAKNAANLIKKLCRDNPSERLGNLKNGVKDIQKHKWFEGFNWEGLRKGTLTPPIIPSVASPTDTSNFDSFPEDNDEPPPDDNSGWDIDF

[13] = system: Tyrosine-protein kinase ABL1 (Homo sapiens), P00519 [F317L]; experiment: Selectivity interaction (KinomeScan (DiscoverX)) EUB0000618a ABL1; conditions: at 10 µM
[14] = biological target: T3, Phosphorylase b kinase gamma catalytic chain, liver/testis isoform (Homo sapiens) (UniProt P15735); experiment: Selectivity interaction (KinomeScan (DiscoverX)) EUB0001619a PHKG2; conditions: at 1 µM
T3 sequence (whole entry): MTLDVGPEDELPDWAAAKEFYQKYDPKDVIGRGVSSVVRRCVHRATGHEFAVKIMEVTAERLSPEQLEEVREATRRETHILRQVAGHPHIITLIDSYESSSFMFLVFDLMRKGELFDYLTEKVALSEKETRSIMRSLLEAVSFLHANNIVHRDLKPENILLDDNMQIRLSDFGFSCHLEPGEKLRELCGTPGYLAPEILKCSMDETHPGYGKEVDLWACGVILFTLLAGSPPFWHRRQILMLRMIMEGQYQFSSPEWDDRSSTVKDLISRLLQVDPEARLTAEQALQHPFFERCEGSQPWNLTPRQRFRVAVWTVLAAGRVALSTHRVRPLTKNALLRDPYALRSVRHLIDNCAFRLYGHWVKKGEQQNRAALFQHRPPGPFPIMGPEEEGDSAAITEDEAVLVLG

Sequence of Cyclin-dependent kinase 3 (Homo sapiens) (Q00526 whole entry, looked up): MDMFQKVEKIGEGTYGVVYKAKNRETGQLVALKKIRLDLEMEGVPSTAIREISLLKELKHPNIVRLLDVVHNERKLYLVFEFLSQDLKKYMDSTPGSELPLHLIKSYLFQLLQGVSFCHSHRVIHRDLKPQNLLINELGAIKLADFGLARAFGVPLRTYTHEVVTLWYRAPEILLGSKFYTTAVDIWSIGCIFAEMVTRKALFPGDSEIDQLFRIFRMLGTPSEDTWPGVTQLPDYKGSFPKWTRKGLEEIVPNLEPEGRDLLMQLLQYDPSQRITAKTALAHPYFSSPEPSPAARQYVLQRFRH
Sequence of Serine/threonine-protein kinase SIK2 (Homo sapiens) (Q9H0K1 whole entry, looked up): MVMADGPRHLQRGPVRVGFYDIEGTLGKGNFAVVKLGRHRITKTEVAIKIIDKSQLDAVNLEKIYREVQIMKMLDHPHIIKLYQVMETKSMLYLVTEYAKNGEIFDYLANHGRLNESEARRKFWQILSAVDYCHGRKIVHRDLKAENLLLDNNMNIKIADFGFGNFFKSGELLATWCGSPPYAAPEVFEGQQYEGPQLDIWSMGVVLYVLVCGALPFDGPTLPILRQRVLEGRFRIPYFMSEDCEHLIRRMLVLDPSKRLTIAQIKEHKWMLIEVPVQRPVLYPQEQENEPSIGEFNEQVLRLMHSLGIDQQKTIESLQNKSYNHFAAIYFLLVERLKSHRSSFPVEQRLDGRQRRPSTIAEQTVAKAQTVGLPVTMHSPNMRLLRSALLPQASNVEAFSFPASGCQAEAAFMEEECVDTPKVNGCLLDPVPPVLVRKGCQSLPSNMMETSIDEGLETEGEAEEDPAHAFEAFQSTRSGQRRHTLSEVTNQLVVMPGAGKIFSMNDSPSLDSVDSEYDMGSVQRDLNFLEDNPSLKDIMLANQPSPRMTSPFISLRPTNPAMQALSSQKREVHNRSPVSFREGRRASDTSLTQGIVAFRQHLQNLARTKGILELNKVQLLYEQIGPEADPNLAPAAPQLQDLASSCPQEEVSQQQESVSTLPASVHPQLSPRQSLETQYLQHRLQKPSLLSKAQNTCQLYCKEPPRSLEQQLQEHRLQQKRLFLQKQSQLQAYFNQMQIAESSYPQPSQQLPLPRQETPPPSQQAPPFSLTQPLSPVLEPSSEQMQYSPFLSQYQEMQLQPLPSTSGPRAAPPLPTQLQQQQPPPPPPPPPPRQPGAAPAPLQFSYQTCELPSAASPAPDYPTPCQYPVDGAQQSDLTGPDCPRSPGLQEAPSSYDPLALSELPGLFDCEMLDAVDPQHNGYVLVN
Sequence of Vascular endothelial growth factor receptor 3 (P35916 whole entry): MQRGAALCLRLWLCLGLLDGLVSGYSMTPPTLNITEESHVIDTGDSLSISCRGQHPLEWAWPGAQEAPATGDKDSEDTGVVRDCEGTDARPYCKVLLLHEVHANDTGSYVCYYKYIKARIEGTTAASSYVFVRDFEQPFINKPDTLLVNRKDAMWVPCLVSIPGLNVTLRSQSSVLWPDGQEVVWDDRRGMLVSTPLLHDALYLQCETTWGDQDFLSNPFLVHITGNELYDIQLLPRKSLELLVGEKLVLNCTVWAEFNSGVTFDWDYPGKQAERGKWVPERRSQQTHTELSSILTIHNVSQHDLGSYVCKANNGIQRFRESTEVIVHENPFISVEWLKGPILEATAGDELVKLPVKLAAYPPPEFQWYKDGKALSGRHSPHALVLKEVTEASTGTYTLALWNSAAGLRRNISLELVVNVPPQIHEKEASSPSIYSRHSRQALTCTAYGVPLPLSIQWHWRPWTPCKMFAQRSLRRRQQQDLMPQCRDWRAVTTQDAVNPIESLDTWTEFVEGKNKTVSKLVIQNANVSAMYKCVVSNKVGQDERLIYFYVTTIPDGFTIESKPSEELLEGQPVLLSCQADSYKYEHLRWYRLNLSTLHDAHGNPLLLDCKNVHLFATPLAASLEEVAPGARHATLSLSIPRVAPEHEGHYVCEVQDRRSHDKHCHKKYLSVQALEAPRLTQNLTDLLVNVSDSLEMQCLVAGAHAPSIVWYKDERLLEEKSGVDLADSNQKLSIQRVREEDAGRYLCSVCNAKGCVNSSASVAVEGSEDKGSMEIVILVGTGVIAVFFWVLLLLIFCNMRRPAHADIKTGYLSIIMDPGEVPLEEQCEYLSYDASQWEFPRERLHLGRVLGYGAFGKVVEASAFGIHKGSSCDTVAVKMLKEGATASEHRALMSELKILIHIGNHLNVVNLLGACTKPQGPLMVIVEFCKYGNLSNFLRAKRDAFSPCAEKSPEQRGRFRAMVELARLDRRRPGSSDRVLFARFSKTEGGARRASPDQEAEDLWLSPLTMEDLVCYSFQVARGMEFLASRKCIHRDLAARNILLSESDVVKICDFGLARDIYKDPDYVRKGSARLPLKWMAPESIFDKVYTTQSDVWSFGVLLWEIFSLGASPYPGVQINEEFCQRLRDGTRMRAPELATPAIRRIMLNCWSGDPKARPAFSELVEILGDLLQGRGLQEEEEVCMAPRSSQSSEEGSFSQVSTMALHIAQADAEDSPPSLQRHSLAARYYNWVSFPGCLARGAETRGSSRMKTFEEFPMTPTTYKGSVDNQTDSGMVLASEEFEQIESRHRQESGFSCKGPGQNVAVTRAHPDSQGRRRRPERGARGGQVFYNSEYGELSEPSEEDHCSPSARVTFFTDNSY
Sequence of Cyclin-dependent kinase 16 (Homo sapiens) (Q00536 whole entry): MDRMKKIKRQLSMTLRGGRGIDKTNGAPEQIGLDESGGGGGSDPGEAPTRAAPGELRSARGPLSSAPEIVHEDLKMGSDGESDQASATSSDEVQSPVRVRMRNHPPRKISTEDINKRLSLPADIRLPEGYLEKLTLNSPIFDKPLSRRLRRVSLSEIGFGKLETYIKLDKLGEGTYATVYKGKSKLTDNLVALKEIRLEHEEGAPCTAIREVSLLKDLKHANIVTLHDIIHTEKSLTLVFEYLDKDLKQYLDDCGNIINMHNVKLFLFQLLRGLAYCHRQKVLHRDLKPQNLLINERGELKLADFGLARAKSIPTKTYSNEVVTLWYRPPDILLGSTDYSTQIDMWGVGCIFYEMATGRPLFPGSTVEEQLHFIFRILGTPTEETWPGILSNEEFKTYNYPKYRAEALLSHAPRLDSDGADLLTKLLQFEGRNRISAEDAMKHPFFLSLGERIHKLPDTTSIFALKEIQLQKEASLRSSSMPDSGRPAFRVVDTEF
Sequence of Casein kinase II subunit alpha (P68400 whole entry, looked up): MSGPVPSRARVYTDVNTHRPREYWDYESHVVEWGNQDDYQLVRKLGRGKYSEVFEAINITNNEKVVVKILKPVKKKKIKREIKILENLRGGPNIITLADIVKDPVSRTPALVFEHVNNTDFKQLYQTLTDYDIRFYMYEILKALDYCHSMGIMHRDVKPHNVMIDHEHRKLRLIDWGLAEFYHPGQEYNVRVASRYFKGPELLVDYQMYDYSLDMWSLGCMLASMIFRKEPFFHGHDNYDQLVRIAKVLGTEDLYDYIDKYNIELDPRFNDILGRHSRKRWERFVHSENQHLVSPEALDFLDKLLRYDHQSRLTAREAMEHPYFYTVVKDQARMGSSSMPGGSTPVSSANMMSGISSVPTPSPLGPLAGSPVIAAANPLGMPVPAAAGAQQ
Sequence of Adenosine receptor A2a (P29274 whole entry): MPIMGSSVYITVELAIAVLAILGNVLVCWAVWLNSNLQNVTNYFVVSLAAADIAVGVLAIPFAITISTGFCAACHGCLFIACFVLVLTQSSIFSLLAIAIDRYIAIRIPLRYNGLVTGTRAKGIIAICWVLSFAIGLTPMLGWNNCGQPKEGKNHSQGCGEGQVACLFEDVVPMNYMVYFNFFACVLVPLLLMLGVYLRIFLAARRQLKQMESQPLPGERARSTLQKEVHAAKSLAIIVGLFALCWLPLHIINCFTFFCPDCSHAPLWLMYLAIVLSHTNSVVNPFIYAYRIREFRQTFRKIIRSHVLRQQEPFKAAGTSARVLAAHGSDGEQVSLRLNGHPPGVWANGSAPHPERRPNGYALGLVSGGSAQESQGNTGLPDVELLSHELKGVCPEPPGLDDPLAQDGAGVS
Sequence of Androgen receptor (Homo sapiens) (P10275 whole entry): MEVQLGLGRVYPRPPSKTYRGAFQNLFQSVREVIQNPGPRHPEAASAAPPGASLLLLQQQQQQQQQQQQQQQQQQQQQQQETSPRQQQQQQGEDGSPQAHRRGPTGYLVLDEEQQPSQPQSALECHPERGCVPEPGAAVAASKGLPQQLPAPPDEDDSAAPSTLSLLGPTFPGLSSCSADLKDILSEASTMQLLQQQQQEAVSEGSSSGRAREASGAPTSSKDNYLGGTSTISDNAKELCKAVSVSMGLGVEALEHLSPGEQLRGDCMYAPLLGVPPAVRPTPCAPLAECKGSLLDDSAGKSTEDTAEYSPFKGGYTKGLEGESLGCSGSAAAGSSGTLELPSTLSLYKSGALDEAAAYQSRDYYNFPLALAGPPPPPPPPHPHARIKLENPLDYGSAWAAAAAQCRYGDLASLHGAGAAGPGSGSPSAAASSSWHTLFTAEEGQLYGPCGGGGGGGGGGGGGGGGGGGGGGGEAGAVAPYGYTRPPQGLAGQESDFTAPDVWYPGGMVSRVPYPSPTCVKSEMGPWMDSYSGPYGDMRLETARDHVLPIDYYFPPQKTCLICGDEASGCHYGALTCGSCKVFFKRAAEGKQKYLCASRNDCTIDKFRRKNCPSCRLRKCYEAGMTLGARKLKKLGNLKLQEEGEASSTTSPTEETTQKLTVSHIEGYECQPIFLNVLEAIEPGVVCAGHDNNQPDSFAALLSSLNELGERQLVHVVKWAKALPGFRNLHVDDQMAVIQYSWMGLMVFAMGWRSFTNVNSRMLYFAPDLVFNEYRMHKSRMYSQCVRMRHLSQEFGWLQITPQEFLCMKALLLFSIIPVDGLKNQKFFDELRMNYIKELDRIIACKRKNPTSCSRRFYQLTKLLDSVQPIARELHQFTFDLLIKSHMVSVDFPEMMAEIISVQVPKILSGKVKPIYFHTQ

## CC(=O)c1cc(-c2ccccc2OCC2CC2)c2ncccn12
[1]
  % of control: 105%

## CNC(=O)Nc1ccc(-c2nc(N3CC4CCC(C3)O4)c3cnn(C4CCC5(CC4)OCCO5)c3n2)cc1
[2]
  % of control: 100%

## Cc1ccc(-c2ccc3c(ccc4sc5c(c43)NC[C@@H](C)NC5=O)n2)cn1
[3]
  % of inhibition: 27%

## CCN(CC)CCCCNc1ncc2cc(-c3cc(OC)cc(OC)c3)c(NC(=O)NC(C)(C)C)nc2n1
[4]
  % of control: 100%

## CC[C@@H]1[C@H](F)C(=O)N[C@@H]1COc1nccc2cc(C(N)=O)c(OC)cc12 [ZIMLOVISERTIB]
[5]
  % of inhibition: -1.15%
[6]
  % of inhibition: -2.2%
[7]
  % of inhibition: 13.2%
[8]
  % of inhibition: 2.07%

## CN(C)C(=O)Cn1cc(-c2ccc(-c3cncc4ccccc34)cc2)cn1
Adenosine receptor A2a
  % of control: 85%

## COCC(=O)NC/C=C/c1ccc2ncnc(Nc3ccc(Oc4ccc(C)nc4)c(C)c3)c2c1 [CP-724714]
[9]
  % of control: 90%

## Cc1cnc(Nc2ccc(F)cc2Cl)nc1-c1c[nH]c(C(=O)N[C@H](CO)c2cccc(Cl)c2)c1
[10]
  % of inhibition: 8%

## Nc1cnc(N2CCc3cc(S(=O)(=O)Nc4c(F)cc(Cl)cc4F)cc(N4CCCC4=O)c32)nc1 [TP-020n]
[11]
  % of control: 100%

## Cc1cc([C@@H](C)Nc2ccccc2C(=O)O)c2nc(N3CCOCC3)cc(=O)n2c1 [AZD-6482]
[12]
  % of control: 100%

## O[C@H]1CC[C@H](Nc2ncc3nc(Nc4c(F)cc(F)cc4F)n([C@H]4CCOC4)c3n2)CC1
[13]
  % of control: 30%

## N#Cc1cccc(-c2c[nH]c3ncnc(N4CCOCC4)c23)c1
[14]
  % of control: 40%
